The record followed here is ChEMBL document CHEMBL1201862, “PubChem BioAssay data set” (2004).

Calls of active or inactive are those of the source.

Assay [1] addresses Beta-2 adrenergic receptor (Homo sapiens, UniProt P07550). Description: ADRB2 activation measured by internalization – cell-based, FAP fluorogen, flow cytometry, cherry pick 1, dose response (AID 588763). Type of assay: functional. A general note: A flow cytometer gives signals particle by particle.
A short description of assay [2]: viability of HCT116 lacking mutant beta-catenin – cell-based, human colon tumor, dose response (AID 1045).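 Also: HCT116 colon tumor cells with beta catenin knocked out; cells exposed to compound for 60 hours.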 Type of assay: functional.
Assay [3] can be described thus: viability of PTEN-deleted HCT116 cells – cell-based, HCT116 PTEN knockout, dose response (AID 1047).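 Also: HCT116 colon tumor cells with PTEN knocked out; cells exposed to compound for 60 hours before readout; potency for loss of cell viability measured by luminescence.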 Type of assay: functional.
Assay [4] addresses G-protein coupled receptor 55 (Homo sapiens, UniProt Q9Y2T6). Nature of the assay: selective activators of receptor GPR55 – imaging, U2OS cells, beta-arrestin-GFP redistribution, primary screen (AID 1961). Format: functional.
Assay [5] addresses CAAX prenyl protease 2 (Homo sapiens, UniProt Q9Y256). Nature of the assay: inhibition of Ras-converting CAAX protease Rce1 – biochemical, yeast membranes, quenched-peptide fluorescence, cherry-pick, dose response (AID 588849).
In assay [6] the test system is A-375. Nature of the assay: proliferation inhibition in MITF-low A375 cells – cell-based, cherry-pick samples, set 2, counter-screen for MITF modulator project, dose response (AID 540335). Format: functional. To be noted: Homo sapiens. In general terms: Counterscreens check selectivity or assay interference.
The test system of assay [7] is A-375. Description: MITF: Counter assay: A375 proliferation Measured in Cell-Based System Using Plate Reader - 2084-03_Inhibitor_Dose_DryPowder_Activity. [Related pubchem assays (depositor defined):AID488944]. To be noted: Homo sapiens. Format: functional.
Assay [8] addresses Serine/threonine-protein phosphatase (Candida dubliniensis (strain CD36 / CBS 7987 / NCPF 3949 / NRRLY-17841) (Yeast), UniProt B9W6M3). Description: blockers of CaCl2-induced CDRE-lacZ signaling – S. cerevisiae, luminescence, secondary, dose response (AID 2388).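 Also: yeast reporter cells carrying a calcineurin-responsive lacZ construct stimulated with calcium chloride; luminescent beta-galactosidase reporter signal in whole cells rather than isolated phosphatase activity; potency for inhibition where a drop in reporter signal means calcineurin blockade.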 Type of assay: functional, cell-based.
Assay [9] concerns the target T1, Calpain-2 catalytic subunit (Sus scrofa, UniProt P43367).
T1 sequence (P43367 whole entry): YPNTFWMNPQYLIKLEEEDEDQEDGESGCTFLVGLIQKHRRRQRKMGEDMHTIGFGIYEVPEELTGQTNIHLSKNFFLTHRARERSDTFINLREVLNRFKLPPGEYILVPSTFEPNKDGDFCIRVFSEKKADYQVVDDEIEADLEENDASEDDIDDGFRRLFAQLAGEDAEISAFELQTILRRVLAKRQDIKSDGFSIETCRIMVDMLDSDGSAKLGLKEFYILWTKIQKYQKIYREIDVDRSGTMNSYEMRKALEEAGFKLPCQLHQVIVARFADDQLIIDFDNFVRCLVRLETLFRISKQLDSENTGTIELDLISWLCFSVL
Description: m-calpain protease blockers, concentration series – biochemical, fluorogenic peptide substrate, dose response (AID 1420). Type of assay: functional.

The nature of assay [10]: fluconazole-exposed Candida albicans growth modulators – fluorescence, retest, confirmation (AID 2467). Format: functional, cell-based.
A short description of assay [11]: NIH-3T3 fibroblast cytotoxicity, dose response, cytotoxicity control, cell-based, fluorescence, Alamar Blue, secondary assay (AID 2327).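 Also: NIH-3T3 mouse fibroblasts cultured with fluconazole at 8 µg/mL.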 Type of assay: functional. Background: Alamar Blue is a resazurin reagent that responds to reducing activity.
For assay [12], the target named is ATP-dependent molecular chaperone HSP82 (Candida albicans (strain WO-1) (Yeast), UniProt C4YTQ8). Description: steroid-induced GRE reporter decrease in yeast – S. cerevisiae, luminescence, Hsp90 inhibitor project, dose response (AID 2400).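 Also: beta-galactosidase luminescence from glucocorticoid response element reporter as proxy for Hsp90 function; inhibitor potency where signal loss means Hsp90 inhibition.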 Format: functional, cell-based.
Chain of ATP-dependent molecular chaperone HSP82 (C4YTQ8 whole entry): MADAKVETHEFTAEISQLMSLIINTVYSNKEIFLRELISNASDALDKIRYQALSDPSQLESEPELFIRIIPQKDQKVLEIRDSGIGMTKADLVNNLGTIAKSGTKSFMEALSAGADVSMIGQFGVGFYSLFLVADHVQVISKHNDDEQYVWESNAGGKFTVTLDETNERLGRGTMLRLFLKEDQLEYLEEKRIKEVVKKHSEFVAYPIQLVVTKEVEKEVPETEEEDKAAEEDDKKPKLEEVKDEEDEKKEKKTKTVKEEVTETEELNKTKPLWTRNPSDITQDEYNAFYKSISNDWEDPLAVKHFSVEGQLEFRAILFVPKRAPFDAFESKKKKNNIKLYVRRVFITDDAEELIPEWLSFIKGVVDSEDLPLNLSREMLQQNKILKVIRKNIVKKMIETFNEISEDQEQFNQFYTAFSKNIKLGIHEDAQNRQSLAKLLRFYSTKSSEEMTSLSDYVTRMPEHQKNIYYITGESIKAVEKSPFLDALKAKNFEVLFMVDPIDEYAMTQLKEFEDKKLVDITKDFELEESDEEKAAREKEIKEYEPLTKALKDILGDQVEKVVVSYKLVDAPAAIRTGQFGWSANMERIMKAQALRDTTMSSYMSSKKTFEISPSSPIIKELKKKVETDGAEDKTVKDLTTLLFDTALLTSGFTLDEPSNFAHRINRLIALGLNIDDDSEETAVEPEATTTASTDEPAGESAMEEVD
The target of assay [13] is Mu-type opioid receptor (Homo sapiens, UniProt P35372). Description: Counterscreen for agonists of heterodimerization of the mu 1 (OPRM1) and delta 1 (OPRD1) opioid receptors: Luminescence-based cell-based high throughput dose response assay to identify agonists of OPRM1 homodimerization. Format: functional.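 Also: U2OS cells expressing OPRM1 and beta-arrestin as split beta-galactosidase partners.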
Chain of Mu-type opioid receptor (P35372 whole entry): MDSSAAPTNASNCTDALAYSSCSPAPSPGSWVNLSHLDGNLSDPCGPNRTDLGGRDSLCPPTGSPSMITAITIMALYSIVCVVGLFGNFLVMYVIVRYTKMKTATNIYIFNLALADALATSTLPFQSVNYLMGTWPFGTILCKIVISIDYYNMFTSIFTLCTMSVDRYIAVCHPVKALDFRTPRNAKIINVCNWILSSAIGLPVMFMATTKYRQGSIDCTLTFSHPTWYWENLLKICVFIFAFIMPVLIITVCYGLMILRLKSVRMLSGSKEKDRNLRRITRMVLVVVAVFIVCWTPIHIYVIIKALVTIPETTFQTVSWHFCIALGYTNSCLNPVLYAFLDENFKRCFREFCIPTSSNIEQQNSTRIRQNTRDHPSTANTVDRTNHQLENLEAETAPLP
The target of assay [14] is Delta-type opioid receptor (Homo sapiens, UniProt P41143). Description: Counterscreen for agonists of heterodimerization of the mu 1 (OPRM1) and delta 1 (OPRD1) opioid receptors: Luminescence-based cell-based high throughput dose response assay to identify agonists of OPRD1 homodimerization. [Related pubchem assays (depositor defined):AID504326, AID504355, AID504692, AID504904, AID504905]. Type of assay: functional.
Chain of Delta-type opioid receptor (P41143 whole entry): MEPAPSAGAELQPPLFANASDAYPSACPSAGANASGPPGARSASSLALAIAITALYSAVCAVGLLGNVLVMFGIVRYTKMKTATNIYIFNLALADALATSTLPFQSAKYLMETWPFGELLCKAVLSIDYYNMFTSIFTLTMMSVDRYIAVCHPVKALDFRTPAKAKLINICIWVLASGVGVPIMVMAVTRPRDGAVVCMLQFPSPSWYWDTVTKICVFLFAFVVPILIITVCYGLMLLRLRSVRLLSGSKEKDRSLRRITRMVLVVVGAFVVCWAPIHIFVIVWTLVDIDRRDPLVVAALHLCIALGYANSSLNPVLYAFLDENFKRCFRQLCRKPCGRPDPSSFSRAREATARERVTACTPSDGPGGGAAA

For assay [15], the target named is 5-hydroxytryptamine receptor 5A (Homo sapiens, UniProt P47898). Description: Counterscreen for agonists of OPRM1-OPRD1 heterodimerization: luminescence-based cell-based high throughput dose response assay to identify agonists of 5-hydroxytryptamine (serotonin) 5A receptor (HTR5A). [Related pubchem assays (depositor defined):AID504326, AID504355, AID504692, AID504904, AID504905]. Format: functional.
Chain of 5-hydroxytryptamine receptor 5A (P47898 whole entry): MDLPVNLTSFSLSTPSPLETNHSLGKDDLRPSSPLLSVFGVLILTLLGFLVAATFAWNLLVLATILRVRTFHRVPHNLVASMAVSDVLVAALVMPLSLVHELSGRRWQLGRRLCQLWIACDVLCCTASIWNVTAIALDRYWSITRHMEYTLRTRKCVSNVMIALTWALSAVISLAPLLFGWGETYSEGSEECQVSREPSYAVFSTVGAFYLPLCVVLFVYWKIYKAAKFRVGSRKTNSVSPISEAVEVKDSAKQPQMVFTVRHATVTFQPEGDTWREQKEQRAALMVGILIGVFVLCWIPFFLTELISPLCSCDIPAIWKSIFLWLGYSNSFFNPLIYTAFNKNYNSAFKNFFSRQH

The target in assay [16] is T2, Microphthalmia-associated transcription factor (Homo sapiens, UniProt O75030).
T2 sequence (O75030 whole entry): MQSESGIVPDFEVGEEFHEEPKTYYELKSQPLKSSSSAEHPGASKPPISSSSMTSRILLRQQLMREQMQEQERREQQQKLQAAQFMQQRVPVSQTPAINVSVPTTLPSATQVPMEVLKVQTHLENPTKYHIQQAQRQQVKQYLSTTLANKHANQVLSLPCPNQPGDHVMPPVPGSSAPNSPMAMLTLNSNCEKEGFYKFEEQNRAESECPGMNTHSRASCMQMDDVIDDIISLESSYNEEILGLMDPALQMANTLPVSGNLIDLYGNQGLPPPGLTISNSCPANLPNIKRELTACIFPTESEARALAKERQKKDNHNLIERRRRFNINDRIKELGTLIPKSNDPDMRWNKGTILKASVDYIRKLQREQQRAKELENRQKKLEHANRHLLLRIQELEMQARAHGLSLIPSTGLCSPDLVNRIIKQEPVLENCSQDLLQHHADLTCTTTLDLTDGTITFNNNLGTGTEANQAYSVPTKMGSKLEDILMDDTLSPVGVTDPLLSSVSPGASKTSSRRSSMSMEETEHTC
Description: reducers of TRPM1 reporter luminescence, concentration series – cell-based, SK-MEL-5, cherry-picked, set 3, MITF inhibitor project, dose response (AID 493073).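 Also: SK-MEL-5 melanoma cells with luciferase driven by the MITF target TRPM1 promoter.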 Type of assay: functional.

Assay [17] is described as follows: Luminescence Cell-Based Dose Response Follow up to Identify Inhibitors of Platelet Dense Granule Release. [Related pubchem assays (depositor defined):AID1663, AID1678, AID2398]. Format: functional.
The target in assay [18] is Phospholipase D2 (Homo sapiens, UniProt O14939). Description: cellular phospholipase D2 inhibition IC50 – cell-based, dose response (AID 602147).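 Also: cellular assay in HEK293 cells overexpressing GFP-tagged PLD2.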 Format: functional.
Chain of Phospholipase D2 (O14939 whole entry): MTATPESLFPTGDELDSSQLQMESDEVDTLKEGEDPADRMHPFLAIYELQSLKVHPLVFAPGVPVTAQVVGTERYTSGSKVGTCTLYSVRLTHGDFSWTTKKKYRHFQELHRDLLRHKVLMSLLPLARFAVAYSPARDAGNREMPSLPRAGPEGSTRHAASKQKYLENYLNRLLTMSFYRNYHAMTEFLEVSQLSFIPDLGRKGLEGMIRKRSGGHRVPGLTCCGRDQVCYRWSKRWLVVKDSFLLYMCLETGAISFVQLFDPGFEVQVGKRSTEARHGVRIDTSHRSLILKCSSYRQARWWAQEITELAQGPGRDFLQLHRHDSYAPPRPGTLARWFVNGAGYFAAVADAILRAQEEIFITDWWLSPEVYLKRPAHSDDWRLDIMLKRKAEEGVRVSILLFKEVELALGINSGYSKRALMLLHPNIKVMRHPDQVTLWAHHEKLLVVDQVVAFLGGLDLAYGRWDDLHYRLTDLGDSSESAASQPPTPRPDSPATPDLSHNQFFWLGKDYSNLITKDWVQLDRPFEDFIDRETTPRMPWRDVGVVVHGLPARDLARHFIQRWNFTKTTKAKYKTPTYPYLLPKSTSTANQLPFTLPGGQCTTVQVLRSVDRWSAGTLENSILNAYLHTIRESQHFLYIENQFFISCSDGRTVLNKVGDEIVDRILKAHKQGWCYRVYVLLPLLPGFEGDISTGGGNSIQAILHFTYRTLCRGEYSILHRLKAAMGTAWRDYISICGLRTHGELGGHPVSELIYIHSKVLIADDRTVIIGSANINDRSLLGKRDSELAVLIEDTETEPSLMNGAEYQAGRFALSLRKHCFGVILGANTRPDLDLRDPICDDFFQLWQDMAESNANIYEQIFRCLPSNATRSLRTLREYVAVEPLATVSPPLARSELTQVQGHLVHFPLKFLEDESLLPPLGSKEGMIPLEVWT
Assay [19] concerns the target Phospholipase D1 (Homo sapiens, UniProt Q13393). Nature of the assay: cellular phospholipase D1 inhibition IC50 – cell-based, dose response (AID 602151).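 Also: cellular PLD1 assay in Calu-1 cells stimulated with PMA.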 Type of assay: functional.

Chain of G-protein coupled receptor 55 (Q9Y2T6 whole entry): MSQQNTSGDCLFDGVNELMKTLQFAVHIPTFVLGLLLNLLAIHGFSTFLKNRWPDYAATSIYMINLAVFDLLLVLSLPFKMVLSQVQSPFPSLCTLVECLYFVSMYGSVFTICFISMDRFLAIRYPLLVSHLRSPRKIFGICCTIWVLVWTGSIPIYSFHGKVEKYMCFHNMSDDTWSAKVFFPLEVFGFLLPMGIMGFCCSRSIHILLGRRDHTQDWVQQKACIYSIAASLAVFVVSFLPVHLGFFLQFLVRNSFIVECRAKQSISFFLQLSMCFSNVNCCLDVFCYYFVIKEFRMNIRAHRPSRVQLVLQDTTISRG
Chain of Phospholipase D1 (Q13393 whole entry): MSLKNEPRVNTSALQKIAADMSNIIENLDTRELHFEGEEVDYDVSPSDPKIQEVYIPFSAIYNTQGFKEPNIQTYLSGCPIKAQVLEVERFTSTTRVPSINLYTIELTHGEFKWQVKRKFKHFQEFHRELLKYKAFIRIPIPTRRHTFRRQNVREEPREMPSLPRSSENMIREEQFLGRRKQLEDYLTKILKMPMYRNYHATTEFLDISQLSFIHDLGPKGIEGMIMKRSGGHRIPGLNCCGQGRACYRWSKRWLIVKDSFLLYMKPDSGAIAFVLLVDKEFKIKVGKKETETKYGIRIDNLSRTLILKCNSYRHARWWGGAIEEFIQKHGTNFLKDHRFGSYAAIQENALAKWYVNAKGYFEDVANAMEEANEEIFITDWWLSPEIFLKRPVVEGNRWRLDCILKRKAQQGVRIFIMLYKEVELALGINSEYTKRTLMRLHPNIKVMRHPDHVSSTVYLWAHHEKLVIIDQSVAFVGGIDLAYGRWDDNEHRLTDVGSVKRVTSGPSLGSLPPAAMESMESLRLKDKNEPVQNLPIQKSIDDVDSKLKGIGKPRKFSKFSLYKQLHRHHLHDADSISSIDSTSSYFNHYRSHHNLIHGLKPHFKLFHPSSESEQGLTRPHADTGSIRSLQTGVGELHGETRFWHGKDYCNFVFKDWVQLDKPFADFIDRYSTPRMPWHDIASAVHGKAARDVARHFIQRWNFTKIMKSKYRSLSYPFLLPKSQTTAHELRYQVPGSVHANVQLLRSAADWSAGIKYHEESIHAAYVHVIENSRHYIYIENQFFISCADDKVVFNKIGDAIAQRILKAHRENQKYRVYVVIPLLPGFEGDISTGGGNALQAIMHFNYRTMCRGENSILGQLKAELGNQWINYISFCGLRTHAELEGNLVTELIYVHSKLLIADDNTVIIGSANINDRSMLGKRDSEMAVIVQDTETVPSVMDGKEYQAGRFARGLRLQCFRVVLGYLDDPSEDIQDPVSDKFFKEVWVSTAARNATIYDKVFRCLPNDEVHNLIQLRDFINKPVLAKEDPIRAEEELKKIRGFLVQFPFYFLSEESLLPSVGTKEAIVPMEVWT
Chain of CAAX prenyl protease 2 (Q9Y256 whole entry): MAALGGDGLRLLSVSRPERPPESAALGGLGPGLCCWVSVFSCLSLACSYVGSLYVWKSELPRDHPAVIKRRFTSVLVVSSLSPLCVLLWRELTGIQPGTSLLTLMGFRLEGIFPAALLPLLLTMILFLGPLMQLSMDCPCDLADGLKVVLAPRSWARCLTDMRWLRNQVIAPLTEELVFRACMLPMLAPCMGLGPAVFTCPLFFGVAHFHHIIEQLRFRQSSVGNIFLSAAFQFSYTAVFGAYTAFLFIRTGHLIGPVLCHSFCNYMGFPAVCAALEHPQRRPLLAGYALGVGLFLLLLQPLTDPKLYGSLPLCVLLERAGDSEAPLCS
Chain of Beta-2 adrenergic receptor (P07550 whole entry): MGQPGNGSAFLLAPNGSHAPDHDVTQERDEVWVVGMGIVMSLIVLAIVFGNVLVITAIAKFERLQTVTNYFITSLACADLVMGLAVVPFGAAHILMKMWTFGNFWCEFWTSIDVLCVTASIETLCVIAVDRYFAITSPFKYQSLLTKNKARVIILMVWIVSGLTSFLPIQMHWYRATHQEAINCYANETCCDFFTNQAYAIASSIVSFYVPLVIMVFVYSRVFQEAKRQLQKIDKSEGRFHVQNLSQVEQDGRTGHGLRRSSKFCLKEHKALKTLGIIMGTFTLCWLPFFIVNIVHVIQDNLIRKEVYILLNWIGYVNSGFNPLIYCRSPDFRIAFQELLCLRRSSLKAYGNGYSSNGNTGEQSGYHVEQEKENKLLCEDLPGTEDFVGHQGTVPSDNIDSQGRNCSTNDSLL

A word on the EC50: it is the concentration that produces a half-maximal response. `COc1ccc(C2C(C#N)=C(N)Oc3c2sc2nc(C)cc(C)c32)cc1` (stereo not given): the EC50 is 9.58 µM (inactive) in [1], 5.01 µM (active) in assay [2], 4.6 µM (active) in assay [3] and 3.41 µM (active) in assay [4].

Usually AC50 stands for the concentration giving half of the maximal activity seen. On to `CCOC(=O)C1CCCN(S(=O)(=O)c2cc3nc(O)c(O)nc3cc2C)C1` (stereo not given), for which the AC50 in [5] was 21.8 µM (active).

On to `CCOc1ccccc1-c1nc(-c2ccc(C)nc2OC)no1`, for which the AC50 in [6] and in assay [7] was > 35 µM (active) throughout.

The term IC50 denotes the point on the concentration scale where inhibition reaches its midpoint. Consider `CCOc1ccc(NC(S)=NNC(=O)c2ccc(Br)cc2)cc1`, for which the EC50 in assay [8] was > 180 µM (inactive); in [10], 0.688 µM (active); in [11], > 160 µM (inactive); in assay [12] it was > 160 µM (inactive). For the same compound, the IC50 in assay [9] is on record as > 50 µM (not active).

As to `Cc1ccc(NC(=O)c2ncn(CCCN[C@H](C)c3cccc4ccccc34)n2)cc1C`, the values for the EC50 in assay [13], in assay [14] and in assay [15] were > 10.3 µM (inactive), > 92.4 µM (inactive) and > 92.4 µM (inactive), respectively. Also, the AC50 in assay [7] is 25.8 µM (active); in assay [16], 22.7 µM (active).

Regarding `CC(=O)Nc1c(C#N)c(-c2ccccc2)c(C#N)c(=O)n1-c1ccc(C)cc1`, the EC50 in [17] is 129 µM (active).

Take `C[C@@H](CN1CCC(n2c(=O)[nH]c3cc(F)ccc32)CC1)NC(=O)c1ccc(F)c(F)c1`: the IC50 is 0.84 µM (active) in assay [18] and 0.012 µM (active) in assay [19].
